Measured values from the supplement of paper PMC10307832.

Tests used:
Assay in all cases: relative viability (nuclei count vs DMSO), 5 days (fraction); higher = more cells survive
[1] = test system: HCC-44
Summary of the method: (§1)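 Medians of duplicate plates are given as relative viability. That measure is the nuclei count in treated wells divided by the count in vehicle wells. Counts were taken on 4× images of lung cancer cell lines in 1536-well plates, 5 days after pin-tool dosing the day after seeding with one drug alone or a fixed anchor-drug dose plus five library-drug doses (not always all listed) in √10 steps.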

[2] = test system: NCI-H1792
Summary of the method: as §1

[3] = test system: HARA
Summary of the method: as §1

[4] = test system: BEN
Summary of the method: as §1

[5] = test system: NCI-H441
Summary of the method: as §1

[6] = test system: NCI-H650
Summary of the method: as §1

[7] = test system: NCI-H358
Summary of the method: as §1

[8] = test system: NCI-H838
Summary of the method: as §1

[9] = test system: COR-L23
Summary of the method: as §1

[10] = test system: EKVX
Summary of the method: as §1

[11] = test system: NCI-H596
Summary of the method: as §1

[12] = test system: NCI-H23
Summary of the method: as §1

[13] = test system: HCC-15
Summary of the method: as §1

[14] = test system: LK-2
Summary of the method: as §1

[15] = test system: SK-MES-1
Summary of the method: as §1

[16] = test system: HCC-827
Summary of the method: as §1

[17] = test system: COR-L 105
Summary of the method: as §1

[18] = test system: A-427
Summary of the method: as §1

[19] = test system: 201T
Summary of the method: as §1

[20] = test system: NCI-H1975
Summary of the method: as §1

[21] = test system: NCI-H1666
Summary of the method: as §1

[22] = test system: SW 900
Summary of the method: as §1

[23] = test system: NCI-H1437
Summary of the method: as §1

Work on `CC1(C)CCC(c2ccc(Cl)cc2)=C(CN2CCN(c3ccc(C(=O)NS(=O)(=O)c4ccc(N[C@H](CCN5CCOCC5)CSc5ccccc5)c(S(=O)(=O)C(F)(F)F)c4)cc3)CC2)C1` [Navitoclax] + Nc1ncn([C@H]2C[C@H](O)[C@@H](CO)O2)c(=O)n1 [Decitabine] (partner 2 µM) yielded a relative viability ([1]; first compound 0.005 µM) of 0.921, a relative viability ([1]; first compound 0.01581 µM) of 0.867 and a relative viability ([1]; first compound 0.05 µM) of 0.903. It also gave a relative viability ([1]; first compound 0.1581 µM) of 0.861, a relative viability ([1]; first compound 0.5 µM) of 0.898 and a relative viability ([2]; first compound 0.005 µM) of 0.488. It also gave a relative viability ([2]; first compound 0.01581 µM) of 0.644, a relative viability ([2]; first compound 0.1581 µM) of 0.525 and a relative viability ([2]; first compound 0.5 µM) of 0.447. For the same molecule, the relative viability ([3]; first compound 0.005 µM) was 0.463, the relative viability ([3]; first compound 0.01581 µM) was 0.736 and the relative viability ([3]; first compound 0.05 µM) was 0.414. The relative viability ([3]; first compound 0.1581 µM) was 0.622, the relative viability ([3]; first compound 0.5 µM) was 0.466 and the relative viability ([4]; first compound 0.005 µM) was 0.784. For the same molecule, the relative viability ([4]; first compound 0.01581 µM) was 0.803, the relative viability ([4]; first compound 0.05 µM) was 0.734 and the relative viability ([4]; first compound 0.1581 µM) was 0.712. The relative viability ([4]; first compound 0.5 µM) was 0.443, the relative viability ([5]; first compound 0.005 µM) was 0.255 and the relative viability ([5]; first compound 0.01581 µM) was 0.217. The relative viability ([5]; first compound 0.05 µM) was 0.207, the relative viability ([5]; first compound 0.1581 µM) was 0.2 and the relative viability ([5]; first compound 0.5 µM) was 0.237. The relative viability ([6]; first compound 0.005 µM) was 0.331, the relative viability ([6]; first compound 0.01581 µM) was 0.298 and the relative viability ([6]; first compound 0.05 µM) was 0.32. For the same molecule, the relative viability ([6]; first compound 0.1581 µM) was 0.336, the relative viability ([6]; first compound 0.5 µM) was 0.264 and the relative viability ([7]; first compound 0.005 µM) was 0.234. For the same molecule, the relative viability ([7]; first compound 0.01581 µM) was 0.225, the relative viability ([7]; first compound 0.05 µM) was 0.206 and the relative viability ([7]; first compound 0.1581 µM) was 0.213. It also gave a relative viability ([7]; first compound 0.5 µM) of 0.187, a relative viability ([8]; first compound 0.005 µM) of 0.457 and a relative viability ([8]; first compound 0.01581 µM) of 0.506. For the same molecule, the relative viability ([8]; first compound 0.05 µM) was 0.47, the relative viability ([8]; first compound 0.1581 µM) was 0.423 and the relative viability ([8]; first compound 0.5 µM) was 0.46. For the same molecule, the relative viability ([9]; first compound 0.005 µM) was 0.428, the relative viability ([9]; first compound 0.01581 µM) was 0.425 and the relative viability ([9]; first compound 0.05 µM) was 0.432. The relative viability ([9]; first compound 0.1581 µM) was 0.428, the relative viability ([9]; first compound 0.5 µM) was 0.437 and the relative viability ([10]; first compound 0.005 µM) was 0.372. It also gave a relative viability ([10]; first compound 0.01581 µM) of 0.428, a relative viability ([10]; first compound 0.05 µM) of 0.361 and a relative viability ([10]; first compound 0.1581 µM) of 0.285. It also gave a relative viability ([10]; first compound 0.5 µM) of 0.343, a relative viability ([11]; first compound 0.005 µM) of 1.04 and a relative viability ([11]; first compound 0.01581 µM) of 0.951. The relative viability ([11]; first compound 0.05 µM) was 0.786, the relative viability ([11]; first compound 0.1581 µM) was 0.998 and the relative viability ([11]; first compound 0.5 µM) was 1.01. For the same molecule, the relative viability ([12]; first compound 0.005 µM) was 0.287, the relative viability ([12]; first compound 0.01581 µM) was 0.32 and the relative viability ([12]; first compound 0.05 µM) was 0.307. For the same molecule, the relative viability ([12]; first compound 0.1581 µM) was 0.331, the relative viability ([12]; first compound 0.5 µM) was 0.272 and the relative viability ([13]; first compound 0.005 µM) was 0.64. It also gave a relative viability ([13]; first compound 0.01581 µM) of 0.652, a relative viability ([13]; first compound 0.05 µM) of 0.386 and a relative viability ([13]; first compound 0.1581 µM) of 0.625. It also gave a relative viability ([13]; first compound 0.5 µM) of 0.411, a relative viability ([14]; first compound 0.005 µM) of 0.295 and a relative viability ([14]; first compound 0.01581 µM) of 0.279. The relative viability ([14]; first compound 0.05 µM) was 0.235, the relative viability ([14]; first compound 0.1581 µM) was 0.267 and the relative viability ([14]; first compound 0.5 µM) was 0.4. The relative viability ([15]; first compound 0.005 µM) was 0.371, the relative viability ([15]; first compound 0.01581 µM) was 0.432 and the relative viability ([15]; first compound 0.05 µM) was 0.349. It also gave a relative viability ([15]; first compound 0.1581 µM) of 0.344, a relative viability ([15]; first compound 0.5 µM) of 0.372 and a relative viability ([16]; first compound 0.005 µM) of 0.364. For the same molecule, the relative viability ([16]; first compound 0.01581 µM) was 0.325, the relative viability ([16]; first compound 0.05 µM) was 0.314 and the relative viability ([16]; first compound 0.1581 µM) was 0.327. It also gave a relative viability ([16]; first compound 0.5 µM) of 0.31, a relative viability ([17]; first compound 0.005 µM) of 0.737 and a relative viability ([17]; first compound 0.01581 µM) of 0.89. The relative viability ([17]; first compound 0.05 µM) was 0.6, the relative viability ([17]; first compound 0.1581 µM) was 0.662 and the relative viability ([17]; first compound 0.5 µM) was 0.537. The relative viability ([18]; first compound 0.005 µM) was 0.607, the relative viability ([18]; first compound 0.01581 µM) was 0.534 and the relative viability ([18]; first compound 0.05 µM) was 0.517. For the same molecule, the relative viability ([18]; first compound 0.1581 µM) was 0.521, the relative viability ([18]; first compound 0.5 µM) was 0.466 and the relative viability ([19]; first compound 0.005 µM) was 0.891. For the same molecule, the relative viability ([19]; first compound 0.01581 µM) was 0.869, the relative viability ([19]; first compound 0.05 µM) was 0.77 and the relative viability ([19]; first compound 0.1581 µM) was 0.824. For the same molecule, the relative viability ([19]; first compound 0.5 µM) was 0.859, the relative viability ([20]; first compound 0.005 µM) was 0.432 and the relative viability ([20]; first compound 0.01581 µM) was 0.392. For the same molecule, the relative viability ([20]; first compound 0.05 µM) was 0.261, the relative viability ([20]; first compound 0.1581 µM) was 0.416 and the relative viability ([20]; first compound 0.5 µM) was 0.29. The relative viability ([21]; first compound 0.005 µM) was 0.781, the relative viability ([21]; first compound 0.01581 µM) was 0.759 and the relative viability ([21]; first compound 0.05 µM) was 0.628. It also gave a relative viability ([21]; first compound 0.1581 µM) of 0.692, a relative viability ([21]; first compound 0.5 µM) of 0.765 and a relative viability ([22]; first compound 0.005 µM) of 0.406. The relative viability ([22]; first compound 0.01581 µM) was 0.412, the relative viability ([22]; first compound 0.1581 µM) was 0.445 and the relative viability ([22]; first compound 0.5 µM) was 0.262. For the same molecule, the relative viability ([23]; first compound 0.005 µM) was 0.549, the relative viability ([23]; first compound 0.01581 µM) was 0.547 and the relative viability ([23]; first compound 0.05 µM) was 0.619. For the same molecule, the relative viability ([23]; first compound 0.1581 µM) was 0.519 and the relative viability ([23]; first compound 0.5 µM) was 0.581.
